Test results from ChEMBL document CHEMBL5724914, “Linking interpersonal differences in gut microbiota composition and drug biotransformation activity” (2024).

Experiment: (§1) The drug is tested on WLS-170 corresponding to human gut metagenome with ENA study accession number: PRJEB37062 and ENA sample accession number: ERS12561762 for biotransformation under anaerobic condition. The drug concentrations were measured over 9 timepoints collected between 0 and 24 hours of incubation by liquid-chromatography-coupled mass spectrometry (LC–MS)
Conditions: 2 µM
Also: call rule not given here.

Row | Bacterial Biotransformation | Compound
1 | Compound NOT metabolized | O=C(NC(Cc1cc(=O)[nH]c2ccccc12)C(=O)O)c1ccc(Cl)cc1 (stereo not given) [REBAMIPIDE]
2 | Compound metabolized | CCOc1cc(CC(=O)N[C@@H](CC(C)C)c2ccccc2N2CCCCC2)ccc1C(=O)O [REPAGLINIDE]

Conditions: human gut metagenome, 24 h, 2 µM

Row | Bacterial Biotransformation | Compound
3 | Compound NOT metabolized | O=C(NC(Cc1cc(=O)[nH]c2ccccc12)C(=O)O)c1ccc(Cl)cc1 (stereo not given) [REBAMIPIDE]
4 | Compound metabolized | CCOc1cc(CC(=O)N[C@@H](CC(C)C)c2ccccc2N2CCCCC2)ccc1C(=O)O [REPAGLINIDE]

Experiment: as §1, with “WLS-086” for “WLS-170”, “ERS12561752” for “ERS12561762”
Conditions: 2 µM

Row | Bacterial Biotransformation | Compound
5 | Compound metabolized | O=C(NC(Cc1cc(=O)[nH]c2ccccc12)C(=O)O)c1ccc(Cl)cc1 (stereo not given) [REBAMIPIDE]
6 | Compound metabolized | CCOc1cc(CC(=O)N[C@@H](CC(C)C)c2ccccc2N2CCCCC2)ccc1C(=O)O [REPAGLINIDE]

Conditions: human gut metagenome, 24 h, 2 µM
Remark: another data set of the same source

Row | Bacterial Biotransformation | Compound
7 | Compound NOT metabolized | O=C(NC(Cc1cc(=O)[nH]c2ccccc12)C(=O)O)c1ccc(Cl)cc1 (stereo not given) [REBAMIPIDE]
8 | Compound metabolized | CCOc1cc(CC(=O)N[C@@H](CC(C)C)c2ccccc2N2CCCCC2)ccc1C(=O)O [REPAGLINIDE]

Conditions: human gut metagenome, 24 h, 2 µM
Remark: another data set of the same source

Row | Bacterial Biotransformation | Compound
9 | Compound NOT metabolized | O=C(NC(Cc1cc(=O)[nH]c2ccccc12)C(=O)O)c1ccc(Cl)cc1 (stereo not given) [REBAMIPIDE]
10 | Compound metabolized | CCOc1cc(CC(=O)N[C@@H](CC(C)C)c2ccccc2N2CCCCC2)ccc1C(=O)O [REPAGLINIDE]

Experiment: as §1, with “Z-014” for “WLS-170”, “rat” for “human”, “ERS12561814” for “ERS12561762”
Conditions: 2 µM

Row | Bacterial Biotransformation | Compound
11 | Compound NOT metabolized | O=C(NC(Cc1cc(=O)[nH]c2ccccc12)C(=O)O)c1ccc(Cl)cc1 (stereo not given) [REBAMIPIDE]
12 | Compound NOT metabolized | CCOc1cc(CC(=O)N[C@@H](CC(C)C)c2ccccc2N2CCCCC2)ccc1C(=O)O [REPAGLINIDE]

Experiment: as §1, with “WLS-090” for “WLS-170”, “ERS12561753” for “ERS12561762”
Conditions: 2 µM

Row | Bacterial Biotransformation | Compound
13 | Compound NOT metabolized | O=C(NC(Cc1cc(=O)[nH]c2ccccc12)C(=O)O)c1ccc(Cl)cc1 (stereo not given) [REBAMIPIDE]
14 | Compound metabolized | CCOc1cc(CC(=O)N[C@@H](CC(C)C)c2ccccc2N2CCCCC2)ccc1C(=O)O [REPAGLINIDE]

Experiment: as §1, with “Z-021” for “WLS-170”, “to” for “to human gut”, “ERS12561820” for “ERS12561762”
Conditions: 2 µM

Row | Bacterial Biotransformation | Compound
15 | Compound metabolized | O=C(NC(Cc1cc(=O)[nH]c2ccccc12)C(=O)O)c1ccc(Cl)cc1 (stereo not given) [REBAMIPIDE]
16 | Compound metabolized | CCOc1cc(CC(=O)N[C@@H](CC(C)C)c2ccccc2N2CCCCC2)ccc1C(=O)O [REPAGLINIDE]

Experiment: as §1, with “WLS-039” for “WLS-170”, “ERS12561746” for “ERS12561762”
Conditions: 2 µM

Row | Bacterial Biotransformation | Compound
17 | Compound NOT metabolized | O=C(NC(Cc1cc(=O)[nH]c2ccccc12)C(=O)O)c1ccc(Cl)cc1 (stereo not given) [REBAMIPIDE]
18 | Compound metabolized | CCOc1cc(CC(=O)N[C@@H](CC(C)C)c2ccccc2N2CCCCC2)ccc1C(=O)O [REPAGLINIDE]

Experiment: as §1, with “Z-010” for “WLS-170”, “to” for “to human gut”, “ERS12561810” for “ERS12561762”
Conditions: 2 µM

Row | Bacterial Biotransformation | Compound
19 | Compound NOT metabolized | O=C(NC(Cc1cc(=O)[nH]c2ccccc12)C(=O)O)c1ccc(Cl)cc1 (stereo not given) [REBAMIPIDE]
20 | Compound metabolized | CCOc1cc(CC(=O)N[C@@H](CC(C)C)c2ccccc2N2CCCCC2)ccc1C(=O)O [REPAGLINIDE]

Experiment: as §1, with “Z-019” for “WLS-170”, “rat” for “human”, “ERS12561818” for “ERS12561762”
Conditions: 2 µM

Row | Bacterial Biotransformation | Compound
21 | Compound NOT metabolized | O=C(NC(Cc1cc(=O)[nH]c2ccccc12)C(=O)O)c1ccc(Cl)cc1 (stereo not given) [REBAMIPIDE]
22 | Compound NOT metabolized | CCOc1cc(CC(=O)N[C@@H](CC(C)C)c2ccccc2N2CCCCC2)ccc1C(=O)O [REPAGLINIDE]

Experiment: as §1, with “Z-005” for “WLS-170”, “to” for “to human gut”, “ERS12561805” for “ERS12561762”
Conditions: 2 µM

Row | Bacterial Biotransformation | Compound
23 | Compound NOT metabolized | O=C(NC(Cc1cc(=O)[nH]c2ccccc12)C(=O)O)c1ccc(Cl)cc1 (stereo not given) [REBAMIPIDE]
24 | Compound metabolized | CCOc1cc(CC(=O)N[C@@H](CC(C)C)c2ccccc2N2CCCCC2)ccc1C(=O)O [REPAGLINIDE]

Conditions: human gut metagenome, 24 h, 2 µM
Remark: another data set of the same source

Row | Bacterial Biotransformation | Compound
25 | Compound NOT metabolized | O=C(NC(Cc1cc(=O)[nH]c2ccccc12)C(=O)O)c1ccc(Cl)cc1 (stereo not given) [REBAMIPIDE]
26 | Compound metabolized | CCOc1cc(CC(=O)N[C@@H](CC(C)C)c2ccccc2N2CCCCC2)ccc1C(=O)O [REPAGLINIDE]

Experiment: as §1, with “Z-001” for “WLS-170”, “mouse” for “human”, “ERS12561801” for “ERS12561762”
Conditions: 2 µM

Row | Bacterial Biotransformation | Compound
27 | Compound NOT metabolized | O=C(NC(Cc1cc(=O)[nH]c2ccccc12)C(=O)O)c1ccc(Cl)cc1 (stereo not given) [REBAMIPIDE]
28 | Compound metabolized | CCOc1cc(CC(=O)N[C@@H](CC(C)C)c2ccccc2N2CCCCC2)ccc1C(=O)O [REPAGLINIDE]

Experiment: as §1, with “Z-018” for “WLS-170”, “pig” for “human”, “ERS12561817” for “ERS12561762”
Conditions: 2 µM

Row | Bacterial Biotransformation | Compound
29 | Compound NOT metabolized | O=C(NC(Cc1cc(=O)[nH]c2ccccc12)C(=O)O)c1ccc(Cl)cc1 (stereo not given) [REBAMIPIDE]
30 | Compound NOT metabolized | CCOc1cc(CC(=O)N[C@@H](CC(C)C)c2ccccc2N2CCCCC2)ccc1C(=O)O [REPAGLINIDE]

Experiment: as §1, with “Z-017” for “WLS-170”, “mouse” for “human”, “ERS12561816” for “ERS12561762”
Conditions: 2 µM

Row | Bacterial Biotransformation | Compound
31 | Compound NOT metabolized | O=C(NC(Cc1cc(=O)[nH]c2ccccc12)C(=O)O)c1ccc(Cl)cc1 (stereo not given) [REBAMIPIDE]
32 | Compound metabolized | CCOc1cc(CC(=O)N[C@@H](CC(C)C)c2ccccc2N2CCCCC2)ccc1C(=O)O [REPAGLINIDE]

Experiment: as §1, with “WLS-082” for “WLS-170”, “ERS12561751” for “ERS12561762”
Conditions: 2 µM

Row | Bacterial Biotransformation | Compound
33 | Compound NOT metabolized | O=C(NC(Cc1cc(=O)[nH]c2ccccc12)C(=O)O)c1ccc(Cl)cc1 (stereo not given) [REBAMIPIDE]
34 | Compound metabolized | CCOc1cc(CC(=O)N[C@@H](CC(C)C)c2ccccc2N2CCCCC2)ccc1C(=O)O [REPAGLINIDE]

Conditions: human gut metagenome, 24 h, 2 µM
Remark: another data set of the same source

Row | Bacterial Biotransformation | Compound
35 | Compound NOT metabolized | O=C(NC(Cc1cc(=O)[nH]c2ccccc12)C(=O)O)c1ccc(Cl)cc1 (stereo not given) [REBAMIPIDE]
36 | Compound metabolized | CCOc1cc(CC(=O)N[C@@H](CC(C)C)c2ccccc2N2CCCCC2)ccc1C(=O)O [REPAGLINIDE]

Conditions: human gut metagenome, 24 h, 2 µM
Remark: another data set of the same source

Row | Bacterial Biotransformation | Compound
37 | Compound NOT metabolized | O=C(NC(Cc1cc(=O)[nH]c2ccccc12)C(=O)O)c1ccc(Cl)cc1 (stereo not given) [REBAMIPIDE]
38 | Compound metabolized | CCOc1cc(CC(=O)N[C@@H](CC(C)C)c2ccccc2N2CCCCC2)ccc1C(=O)O [REPAGLINIDE]

Experiment: as §1, with “WLS-027” for “WLS-170”, “ERS12561744” for “ERS12561762”
Conditions: 2 µM

Row | Bacterial Biotransformation | Compound
39 | Compound NOT metabolized | O=C(NC(Cc1cc(=O)[nH]c2ccccc12)C(=O)O)c1ccc(Cl)cc1 (stereo not given) [REBAMIPIDE]
40 | Compound metabolized | CCOc1cc(CC(=O)N[C@@H](CC(C)C)c2ccccc2N2CCCCC2)ccc1C(=O)O [REPAGLINIDE]
